Measured values from patent US20140051635A1, “COMBINATION THERAPY FOR TREATMENT OF CANCER” (UNIVERSITY OF SOUTH ALABAMA, priority 2011, published 2014).
Like-named read-outs stand apart in the source and are kept apart here.

What was measured:
[1] = tested on: breast cancer, patients pre-treated with doxorubicin; conditions: cited from earlier work
[2] = tested on: SPARC expression in colon cancer cell lines and primary colon cancers; conditions: colon cancer cell lines and primary colon cancers with SPARC promoter hypermethylation; cited from earlier work
AML = conditions: 27 patients assigned to azacitidine; cited from earlier work
MDS = MDS patients; cited from earlier work
[3] = mice; cited from earlier work
[4] = rats; cited from earlier work
higher-risk MDS = conditions: cited from earlier work
[5] = cited from earlier work
[6] = parenteral, administered weekly; cited from earlier work
[7] = tested on: advanced or metastatic solid tumors; conditions: human, in vivo
Description: Eligible patients include those with solid tumors that progressed or were stable as best response on at least one previous therapy. […] Further criteria included: female and male patients; age≧19 years; ECOG PS≦2; adequate bone marrow, liver and heart function; and signed written-informed consent.
Serum and/or tissue samples, where appropriate, were collected for correlative studies.
Outcome evaluation for primary endpoints included: type, incidence, severity, timing, seriousness, and relatedness of adverse events, and laboratory abnormalities; and objective response rate. Outcome evaluation for secondary endpoints included: progression-free survival (PFS); and expression of tissue SPARC protein. Statistical Analysis included the standard 3+3 design. Patients were accrued to each dose level in cohorts of up to 3-6. Escalation was continued until a dose limiting toxicity (DLT) was observed or the highest dose-level was reached. The best response, including complete response (CR), partial response (PR), stable disease (SD), or progression of disease (PD), for each patient was determined. Descriptive statistics were used to summarize all patient characteristics, treatment administration and compliance, and protein biomarkers. Safety data were determined for all patients receiving at least 1 dose of study treatment.

Q: What does the source list for CC(=O)O[C@@]12CO[C@@H]1C[C@H](O)[C@@]1(C)C(=O)[C@H](O)C3=C(C)[C@@H](OC(=O)[C@H](O)[C@@H](NC(=O)OC(C)(C)C)c4ccccc4)C[C@@](O)([C@@H](OC(=O)c4ccccc4)[C@H]21)C3(C)C [docetaxel]?
A: median overall survival [1]: 11.4 months; median time to disease progression [1]: 4.4 months

Q: With Nc1ncn([C@H]2C[C@H](O)[C@@H](CO)O2)c(=O)n1 [5Aza-dC] as the molecule, how does the SPARC expression [2] read?
A: Its SPARC expression is “able to upregulate SPARC expression in most cases”.

Q: Which median survival time (AML) does the source give for Nc1ncn([C@@H]2O[C@H](CO)[C@@H](O)[C@H]2O)c(=O)n1 [azacitidine] here?
A: Its median survival time is 19.3 months.

Q: And the partial remission (MDS)?
A: The partial remission was “rare”.

Q: What about the “embryotoxicity and reproductive performance” value [3] of the same molecule?
A: The value was “embryotoxic and reduced the reproductive performance”.

Q: And the “embryotoxicity and reproductive performance” value [4]?
A: The value was “embryotoxic and reduced the reproductive performance”.

Q: What about the median overall survival (higher-risk MDS; 75 mg/m^2/day x 7 days in 28 day cycles, N=179) of the same molecule?
A: Its median overall survival is 24.4 months.

Q: What about the two-year survival (higher-risk MDS; azacitidine arm) of the same molecule?
A: The two-year survival was 51%.

Q: What about the tolerability (higher-risk MDS; in vivo) of the same molecule?
A: The tolerability was “well tolerated”.

Q: And the “systemic IV clearance” value ([5]; 75 mg/m^2 IV)?
A: The value was 147 L/h.

Q: What about the “bioavailability for the SC dose” value ([5]; 75 mg/m^2 SC vs IV) of the same molecule?
A: The value was about 89%.

Q: And the tolerability ([5]; 75 mg/m^2 single SC injection or IV infusion over 10 minutes)?
A: The tolerability was “generally well-tolerated”.

Q: What about the maximum tolerated doses [6] of the same molecule?
A: Its maximum tolerated doses is “up to 500 mg/m^2”.

Q: And the “maximum tolerated dose of azacitadine in this regimen” value [7]?
A: The value was 75 mg/m^2.
